Values quoted from earlier work in patent US6514710B1, “Method of using cyclic peptides to inhibit binding to urokinase-type plasminogen activator receptor” (Angstrom Pharmaceuticals, Inc., priority 1996, dated 2003).
Where two headings read alike, the source gives them in different places.

Key:
[1] = target: T1, uPAR (Homo sapiens, UniProt Q03405); conditions: read-out: IC50, prevention of uPA binding to uPAR
[2] = system: murine Lewis Lung carcinoma; conditions: murine Lewis Lung carcinoma in mice; peptides derived from the mouse sequence
[3] = target: T1, uPAR; conditions: read-out: IC50, inhibition of the binding of uPA to uPAR

T1 sequence (Q03405 23-305): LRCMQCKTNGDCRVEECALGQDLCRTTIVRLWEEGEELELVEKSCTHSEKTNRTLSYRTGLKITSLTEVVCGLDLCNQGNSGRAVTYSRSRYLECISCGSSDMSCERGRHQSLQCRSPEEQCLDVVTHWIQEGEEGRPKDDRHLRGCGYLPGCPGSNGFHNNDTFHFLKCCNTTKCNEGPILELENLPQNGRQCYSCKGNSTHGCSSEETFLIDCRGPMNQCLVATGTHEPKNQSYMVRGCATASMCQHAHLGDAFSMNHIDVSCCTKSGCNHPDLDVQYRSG

Row | IC50 [1] | IC50 [3] | Substance | inhibition of spontaneous metastasis [2]
1 | – | 1000 nM | linear peptide 20-30: linear peptide of uPA residues 20-30 (VSNKYFSNIHW; UniProt P00749 40-50, looked up, fragment) | –
2 | – | 100 nM | peptide 17-34: longer peptide of uPA residues 17-34 (GTCVSNKYFSNIHWCNCP; UniProt P00749 37-54, looked up, fragment) | –

Second part, the substance before the results:

Row | Substance | IC50 [1] | IC50 [3] | inhibition of spontaneous metastasis [2]
3 | [Ala^19]uPA-(12-32) [[Ala^19]uPA-(12-32) open chain form] | 100 nM | – | –
4 | [Ala^19]uPA-(12-32) [[Ala^19]uPA-(12-32) oxidized cyclic form] | 40 nM | – | –
5 | corresponding linear shorter peptide (20-30): linear shorter peptide (20-30) corresponding to the mouse sequence (CVSYKYFSRIR; UniProt P06869 40-50, looked up, fragment) | – | – | had no effect
6 | peptide (17-34) derived from the mouse sequence: corresponding longer peptide (17-34) derived from the mouse uPA sequence (GGVCVSYKYFSRIRRCSC; UniProt P06869 37-54, looked up, fragment) | – | – | inhibited spontaneous metastasis
